The target in the assay is Glutamate receptor 2 (Homo sapiens, UniProt P42262). The experiment in a line: Positive allosteric modulation of GluA2Q flop isoform (unknown origin) expressed in HEK293 cells assessed as increase in L-glutamate induced calcium flux after 1 hr by fluo-4AM dye-based fluorescence assay. (A change in cytosolic calcium serves as a functional read-out for many receptors and channels.)

As usually defined, the EC50 is the midpoint of the concentration-response curve.

Chain of Glutamate receptor 2 (P42262 whole entry, canonical isoform): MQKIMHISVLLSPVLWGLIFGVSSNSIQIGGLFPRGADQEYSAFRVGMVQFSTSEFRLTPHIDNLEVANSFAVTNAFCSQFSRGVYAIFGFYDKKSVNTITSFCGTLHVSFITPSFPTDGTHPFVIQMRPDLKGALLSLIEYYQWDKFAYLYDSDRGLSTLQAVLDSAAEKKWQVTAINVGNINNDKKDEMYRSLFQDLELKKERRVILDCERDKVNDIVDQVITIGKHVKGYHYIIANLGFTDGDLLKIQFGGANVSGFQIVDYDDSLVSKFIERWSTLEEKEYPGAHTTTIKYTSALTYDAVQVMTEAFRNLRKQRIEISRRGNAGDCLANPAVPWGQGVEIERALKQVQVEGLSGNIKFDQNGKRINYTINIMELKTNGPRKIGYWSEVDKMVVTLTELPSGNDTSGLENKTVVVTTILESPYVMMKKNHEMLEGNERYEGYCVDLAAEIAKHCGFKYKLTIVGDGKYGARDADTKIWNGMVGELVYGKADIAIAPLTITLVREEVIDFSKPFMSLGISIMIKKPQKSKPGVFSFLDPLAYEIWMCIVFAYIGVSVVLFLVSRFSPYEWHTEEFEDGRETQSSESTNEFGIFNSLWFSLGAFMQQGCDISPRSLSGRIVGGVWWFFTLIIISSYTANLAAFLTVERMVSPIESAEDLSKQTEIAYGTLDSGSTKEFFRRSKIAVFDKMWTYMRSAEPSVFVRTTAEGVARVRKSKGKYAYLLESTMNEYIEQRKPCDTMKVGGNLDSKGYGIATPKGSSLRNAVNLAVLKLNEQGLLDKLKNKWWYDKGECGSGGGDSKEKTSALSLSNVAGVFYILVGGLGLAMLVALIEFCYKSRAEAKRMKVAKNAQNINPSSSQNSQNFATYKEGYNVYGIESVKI

For `O=S1(=O)NCN(C2CC2)c2cc(CCc3ccc4c(c3)N(C3CC3)CNS4(=O)=O)ccc21`, the EC50 amounted to 1.3 nM.
